Usually inhibition stands for the share of the control response that was lost under treatment. A lower inhibition goes with a response near the control.

Where a SMILES comes first, the peptide text is derived from it.

For this assay, the target named is T1, BTLA/HVEM complex (Homo sapiens, UniProt Q92956).
T1 construct: purchased ACROBiosystems HVM-H52E9 (HVEM-His); BTA-H5255 (BTLA-Fc)
T1 sequence (Q92956 39-202 limits assumed): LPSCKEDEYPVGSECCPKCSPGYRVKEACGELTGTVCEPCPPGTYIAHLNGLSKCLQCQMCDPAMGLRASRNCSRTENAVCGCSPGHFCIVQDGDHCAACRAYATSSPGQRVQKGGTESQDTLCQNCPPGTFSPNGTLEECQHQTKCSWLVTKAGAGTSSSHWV
As to the kind of experiment: ELISA inhibition of BTLA/HVEM complex formation. It is filed as biochemical. The conditions noted are these: peptide 16.67 μM, immobilized HVEM-His, BTLA-Fc 5 μg/mL, PBS-T, 37 °C, mean of three independent experiments. On the procedure: In the subsequent stage of the study, the potential of the obtained compounds to inhibit the interaction between BTLA and HVEM proteins was evaluated using ELISA, following the methodology described in our previous studies. , HVEM was immobilized on the plate and incubated with peptides at three different concentrations, followed by the addition of Fc-tagged BTLA. Detection was carried out using horseradish peroxidase (HRP) conjugated with anti-human IgG and 3,3′,5,5′-tetramethylbenzidine (TMB) as a substrate. Signal intensity was directly proportional to the amount of BTLA bound to HVEM and inversely proportional to the inhibitory activity of the tested peptides. As a control, BTLA and HVEM were incubated in the absence of peptides.
Recombinant human HVEM protein with a His tag was purchased from ACROBiosystems, Newark, DE, USA (no. HVM-H52E9). Recombinant human protein BTLA-Fc and LIGHT-Fc were also purchased from ACROBiosystems, Newark, DE, USA (no. BTA-H5255 and no. LIT-H5269).
ELISA was performed using transparent 96-well NUNC Maxisorp plates (Thermo Fisher Scientific, Waltham, MA, USA). In the first step, HVEM-His, dissolved in PBS at a concentration of 5 μg/mL (100 μL/well), was immobilized on the plate by overnight incubation at 4 °C. Wells were then blocked with 5% bovine serum albumin (BSA) in PBS containing 0.05% Tween 20 (PBS-T) (200 μL/well). Next, peptides dissolved in PBS-T at concentrations of 150, 50, and 16.67 μM were added to the wells (100 μL/well). Following this, BTLA-Fc in PBS-T at a concentration of 5 μg/mL (100 μL/well) was applied. In the next step, goat anti-human IgG antibody conjugated with the HRP (Bio-Rad Laboratories, Hercules, CA, USA) in PBS-T at a ratio of 1:30,000 (v/v) was added (100 μL/well). Colorimetric detection was performed by adding 100 μL of TMB substrate (Thermo Fisher Scientific, Waltham, MA, USA) to each well and incubating the plate in the dark. At each stage, plates were incubated at 37 °C with continuous shaking for 1 h (except TMB, which was incubated for 15 min). After each incubation, wells were washed five times with PBS-T. Absorbance was measured using an Infinite M200 Pro Reader (Tecan Group Ltd., Männedorf, Switzerland) at wavelengths of 650 nm (measurement wavelength) and 492 nm (reference wavelength). Inhibition assays for the HVEM/LIGHT complex were conducted using the same approach, except that LIGHT was used instead of BTLA. The BTLA/HVEM and HVEM/LIGHT complexes without peptides served as controls. Inhibition percentages were calculated based on the assumption that PBS-T has no effect on the formation of BTLA/HVEM or HVEM/LIGHT complexes. Each ELISA was conducted in at least three independent replicates. The data were analyzed using GraphPad Prism 8 software (San Diego, CA, USA).
Background: An ELISA detects its analyte on a solid surface through an enzyme-linked reagent.

Compound `CC[C@@H]1NC(=O)[C@@H](NC(=O)[C@H](CCC(N)=O)NC(=O)[C@H](Cc2ccc(O)cc2)NC(C)=O)CSSC[C@@H](C(=O)N[C@@H](Cc2c[nH]cn2)C(=O)N[C@@H](Cc2ccccc2)C(=O)N[C@@H](Cc2ccccc2)C(N)=O)NC(=O)[C@H](CCC(N)=O)NC(=O)[C@H](CC(C)C)NC(=O)[C@H](CCCNC(=N)N)NC(=O)[C@H]([C@@H](C)CC)NC(=O)CNC(=O)[C@H](CO)NC(=O)[C@H](CCCCN)NC(=O)[C@H](CCC(N)=O)NC(=O)[C@H](CO)NC(=O)[C@H](CCCNC(=N)N)NC(=O)[C@H](C)NC1=O` [A5, CD160(110–128) ^(C113X,G125C)] (HELM PEPTIDE1{[ac].Y.Q.C.[Abu].A.R.S.Q.K.S.G.I.R.L.Q.C.H.F.F.[am]}$PEPTIDE1,PEPTIDE1,4:R3-17:R3$$$V2.0) registered an inhibition at 16.67 µM of 6.24%.

(Values after publication PMC12714101, “CD160-Derived Peptide as a Bidirectional Inhibitor Toward Immune Checkpoints BTLA/HVEM and HVEM/LIGHT” (Journal of Medicinal Chemistry, 2025).)
